Where a SMILES comes first, the peptide text is derived from it. [ ]: non-standard residue; d: D form. The star is where a group is joined. NHCH2CH2OH = OCCN*; For = O=C*
Columns and labels:
[1] = tested on: P388 mouse leukemia cells; settings: 92 h
In short: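 Peptide stocks diluted 250× in growth medium; P388 cells 1 × 10^4 cells/mL final; 37 °C, 5% CO2, 92 h. WST-1 + 1-methoxy PMS, 4 h, A415. Output: % viability.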

[2] = H+/Na+ transport assay of bead-derived peptides (one-point); format: biochemical; design: key: relative activity; mean of two control wells = 1.00; settings: bead-derived peptide solution, EYPC/EYPG LUVs;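 note: relative to parent gramicidin A activity set to 1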
In short: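 Values are normalized fluorescence, with Triton X-100 defining 100% and untreated LUVs 0%, and the two control wells averaging 1.00. Vesicles carried 1.0 mM pyranine and included egg yolk phosphatidylglycerol. Peptides were incubated with them 30 min at room temperature.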

[3] = tested on: Streptococcus pyogenes SSI-9; experiment: Antibacterial activity assay of bead-derived peptides (three concentrations); format: cell-based; design: key: +++: inhibition by the 640-fold diluted peptide solution; ++: inhibition by the 160-fold diluted solution; +: inhibition by the 40-fold diluted solution; -: no inhibition; settings: S. pyogenes, bead-derived peptide solution, three concentrations
In short: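 First, each peptide stock was diluted 4- and 16-fold in DMSO; next, the three solutions were mixed with S. pyogenes SSI-9 suspension (2 × 10^5 CFU) in cation-adjusted Mueller Hinton Broth plus 5% laked horse blood; finally, plates stood 18 h at 37 °C before checking for grown-cell precipitation.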

| SMILES | cell viability/% [1] [%] | H+/Na+ transport activity normalized against the value of 1 (1.00) [2] | antibacterial activity [3] |
| --- | --- | --- | --- |
| CNC(=O)C[C@@H](NC(=O)[C@@H](NC(=O)[C@@H](CC(C)C)NC(=O)[C@H](C)NC(=O)[C@@H](CC(C)C)NC(=O)[C@H](C)NC(=O)CNC(=O)[C@@H](NC=O)C(C)C)C(C)C)C(=O)N[C@@H](Cc1c[nH]c2ccccc12)C(=O)N[C@H](CC(C)C)C(=O)N[C@@H](Cc1c[nH]c2ccccc12)C(=O)N[C@@H](C(=O)N[C@@H](Cc1c[nH]c2ccccc12)C(=O)N[C@H](CC(C)C)C(=O)N[C@@H](Cc1c[nH]c2ccccc12)C(=O)NCCO)C(C)C [compound 8600] (For-VGA[dL]A[dL]V[dD](NHMe)W[dL]W[dV]W[dL]W-NHCH2CH2OH) | 55.3 | 1.20 | - |
| CC(C)C[C@@H](NC(=O)[C@H](C)NC(=O)CNC(=O)[C@@H](NC=O)C(C)C)C(=O)N[C@@H](C)C(=O)N[C@H](CC(C)C)C(=O)N[C@H](C(=O)N[C@H](CC(C)C)C(=O)N[C@@H](Cc1c[nH]c2ccccc12)C(=O)N[C@H](CC(C)C)C(=O)N[C@@H](Cc1c[nH]c2ccccc12)C(=O)N[C@H](CC(C)C)C(=O)N[C@@H](Cc1c[nH]c2ccccc12)C(=O)N[C@@H](C(=O)N[C@@H](Cc1c[nH]c2ccccc12)C(=O)NCCO)C(C)C)C(C)C [compound 10340] (For-VGA[dL]A[dL]V[dL]W[dL]W[dL]W[dV]W-NHCH2CH2OH) | 3.4 | 1.00 | - |
| CNC(=O)C[C@@H](NC(=O)[C@H](Cc1c[nH]c2ccccc12)NC(=O)[C@H](NC(=O)[C@H](Cc1c[nH]c2ccccc12)NC(=O)[C@H](NC(=O)[C@H](Cc1c[nH]c2ccccc12)NC(=O)[C@@H](CC(C)C)NC(=O)[C@@H](NC(=O)[C@H](NC(=O)[C@H](C)NC(=O)[C@@H](CC(C)C)NC(=O)[C@H](C)NC(=O)CNC(=O)[C@@H](NC=O)C(C)C)C(C)C)C(C)C)C(C)C)C(C)C)C(=O)N[C@@H](Cc1c[nH]c2ccccc12)C(=O)NCCO [compound 6520] (For-VGA[dL]A[dV]V[dL]W[dV]W[dV]W[dD](NHMe)W-NHCH2CH2OH) | 100.0 | 1.08 | - |
| CC(C)C[C@@H](NC(=O)[C@H](C)NC(=O)CNC(=O)[C@@H](NC=O)C(C)C)C(=O)N[C@@H](C)C(=O)N[C@@H](C(=O)N[C@H](C(=O)N[C@H](CC(C)C)C(=O)N[C@@H](Cc1c[nH]c2ccccc12)C(=O)N[C@H](CC(C)C)C(=O)N[C@@H](Cc1c[nH]c2ccccc12)C(=O)N[C@@H](C(=O)N[C@@H](Cc1c[nH]c2ccccc12)C(=O)N[C@H](CC(C)C)C(=O)N[C@@H](Cc1c[nH]c2ccccc12)C(=O)NCCO)C(C)C)C(C)C)C(C)C [compound 13252] (For-VGA[dL]A[dV]V[dL]W[dL]W[dV]W[dL]W-NHCH2CH2OH) | 2.6 | 1.14 | - |
| CC(C)C[C@@H](NC(=O)[C@H](Cc1c[nH]c2ccccc12)NC(=O)[C@@H](CC(C)C)NC(=O)[C@@H](NC(=O)[C@H](NC(=O)[C@H](C)NC(=O)[C@H](NC(=O)[C@H](C)NC(=O)CNC(=O)[C@@H](NC=O)C(C)C)[C@H](C)O)C(C)C)C(C)C)C(=O)N[C@@H](Cc1c[nH]c2ccccc12)C(=O)N[C@H](CC(C)C)C(=O)N[C@@H](Cc1c[nH]c2ccccc12)C(=O)N[C@@H](C(=O)N[C@@H](Cc1c[nH]c2ccccc12)C(=O)NCCO)C(C)C [compound 11317] (For-VGA[dT]A[dV]V[dL]W[dL]W[dL]W[dV]W-NHCH2CH2OH) | 42.1 | 1.02 | - |
| CNC(=O)C[C@@H](NC(=O)[C@@H](NC(=O)[C@H](NC(=O)[C@H](C)NC(=O)[C@@H](CC(C)C)NC(=O)[C@H](C)NC(=O)CNC(=O)[C@@H](NC=O)C(C)C)C(C)C)C(C)C)C(=O)N[C@@H](Cc1c[nH]c2ccccc12)C(=O)N[C@H](CC(C)C)C(=O)N[C@@H](Cc1c[nH]c2ccccc12)C(=O)N[C@H](CC(C)C)C(=O)N[C@@H](Cc1c[nH]c2ccccc12)C(=O)N[C@H](CC(C)C)C(=O)N[C@@H](Cc1c[nH]c2ccccc12)C(=O)NCCO [compound 9336] (For-VGA[dL]A[dV]V[dD](NHMe)W[dL]W[dL]W[dL]W-NHCH2CH2OH) | 100.0 | 1.18 | - |
| CC(C)C[C@@H](NC(=O)[C@H](C)NC(=O)[C@H](NC(=O)[C@H](C)NC(=O)CNC(=O)[C@@H](NC=O)C(C)C)C(C)C)C(=O)N[C@H](C(=O)N[C@@H](C(=O)N[C@@H](Cc1c[nH]c2ccccc12)C(=O)N[C@@H](C(=O)N[C@@H](Cc1c[nH]c2ccccc12)C(=O)N[C@H](CC(C)C)C(=O)N[C@@H](Cc1c[nH]c2ccccc12)C(=O)N[C@H](CC(C)C)C(=O)N[C@@H](Cc1c[nH]c2ccccc12)C(=O)NCCO)C(C)C)C(C)C)C(C)C [compound 12099] (For-VGA[dV]A[dL]V[dV]W[dV]W[dL]W[dL]W-NHCH2CH2OH) | 85.4 | 1.05 | + |
| CC(C)C[C@@H](NC(=O)[C@H](C)NC(=O)[C@H](NC(=O)[C@H](C)NC(=O)CNC(=O)[C@@H](NC=O)C(C)C)C(C)C)C(=O)N[C@H](C(=O)N[C@@H](C(=O)N[C@@H](Cc1c[nH]c2ccccc12)C(=O)N[C@@H](C(=O)N[C@@H](Cc1c[nH]c2ccccc12)C(=O)N[C@H](CC(C)C)C(=O)N[C@@H](Cc1c[nH]c2ccccc12)C(=O)N[C@H](CC(C)C)C(=O)N[C@@H](Cc1c[nH]c2ccccc12)C(=O)NCCO)[C@H](C)O)[C@H](C)O)C(C)C [compound 10517] (For-VGA[dV]A[dL]V[dT]W[dT]W[dL]W[dL]W-NHCH2CH2OH) | 100.0 | 1.05 | - |
| CC(C)C[C@@H](NC(=O)[C@H](C)NC(=O)[C@H](NC(=O)[C@H](C)NC(=O)CNC(=O)[C@@H](NC=O)C(C)C)C(C)C)C(=O)N[C@H](C(=O)N[C@@H](C(=O)N[C@@H](Cc1c[nH]c2ccccc12)C(=O)N[C@@H](C(=O)N[C@@H](Cc1c[nH]c2ccccc12)C(=O)N[C@H](CC(C)C)C(=O)N[C@@H](Cc1c[nH]c2ccccc12)C(=O)N[C@H](CC(C)C)C(=O)N[C@@H](Cc1c[nH]c2ccccc12)C(=O)NCCO)C(C)C)[C@H](C)O)C(C)C [compound 7840] (For-VGA[dV]A[dL]V[dT]W[dV]W[dL]W[dL]W-NHCH2CH2OH) | 100.0 | 1.12 | - |
| CC(C)C[C@@H](NC(=O)[C@H](Cc1c[nH]c2ccccc12)NC(=O)[C@@H](CC(C)C)NC(=O)[C@H](Cc1c[nH]c2ccccc12)NC(=O)[C@@H](CC(C)C)NC(=O)[C@H](Cc1c[nH]c2ccccc12)NC(=O)[C@H](NC(=O)[C@@H](NC(=O)[C@H](NC(=O)[C@H](C)NC(=O)[C@H](NC(=O)[C@H](C)NC(=O)CNC(=O)[C@@H](NC=O)C(C)C)C(C)C)C(C)C)C(C)C)C(C)C)C(=O)N[C@@H](Cc1c[nH]c2ccccc12)C(=O)NCCO [compound 662] (For-VGA[dV]A[dV]V[dV]W[dL]W[dL]W[dL]W-NHCH2CH2OH) | 1.5 | 1.04 | +++ |
| CC(C)C[C@@H](NC(=O)[C@H](Cc1c[nH]c2ccccc12)NC(=O)[C@H](NC(=O)[C@@H](NC(=O)[C@H](NC(=O)[C@H](C)NC(=O)[C@H](NC(=O)[C@H](C)NC(=O)CNC(=O)[C@@H](NC=O)C(C)C)[C@H](C)O)C(C)C)C(C)C)C(C)C)C(=O)N[C@@H](Cc1c[nH]c2ccccc12)C(=O)N[C@@H](C(=O)N[C@@H](Cc1c[nH]c2ccccc12)C(=O)N[C@@H](C(=O)N[C@@H](Cc1c[nH]c2ccccc12)C(=O)NCCO)C(C)C)C(C)C [compound 12298] (For-VGA[dT]A[dV]V[dV]W[dL]W[dV]W[dV]W-NHCH2CH2OH) | 100.0 | 1.04 | - |
| CC(C)C[C@@H](NC(=O)[C@H](C)NC(=O)[C@H](NC(=O)[C@H](C)NC(=O)CNC(=O)[C@@H](NC=O)C(C)C)C(C)C)C(=O)N[C@H](C(=O)N[C@@H](C(=O)N[C@@H](Cc1c[nH]c2ccccc12)C(=O)N[C@H](CC(C)C)C(=O)N[C@@H](Cc1c[nH]c2ccccc12)C(=O)N[C@H](CC(C)C)C(=O)N[C@@H](Cc1c[nH]c2ccccc12)C(=O)N[C@H](CC(C)C)C(=O)N[C@@H](Cc1c[nH]c2ccccc12)C(=O)NCCO)C(C)C)C(C)C [compound 9897] (For-VGA[dV]A[dL]V[dV]W[dL]W[dL]W[dL]W-NHCH2CH2OH) | 8.1 | 1.04 | + |
| CC(C)C[C@@H](NC(=O)[C@H](C)NC(=O)CNC(=O)[C@@H](NC=O)C(C)C)C(=O)N[C@@H](C)C(=O)N[C@@H](C(=O)N[C@H](C(=O)N[C@@H](C(=O)N[C@@H](Cc1c[nH]c2ccccc12)C(=O)N[C@@H](C(=O)N[C@@H](Cc1c[nH]c2ccccc12)C(=O)N[C@H](CC(C)C)C(=O)N[C@@H](Cc1c[nH]c2ccccc12)C(=O)N[C@@H](C(=O)N[C@@H](Cc1c[nH]c2ccccc12)C(=O)NCCO)C(C)C)C(C)C)C(C)C)C(C)C)C(C)C [compound 4884] (For-VGA[dL]A[dV]V[dV]W[dV]W[dL]W[dV]W-NHCH2CH2OH) | 49.1 | 1.27 | ++ |

Reference: paper PMC7531004, “Discovery of gramicidin A analogues with altered activities by multidimensional screening of a one-bead-one-compound library” (Nature Communications, 2020)
